Data on 26 compounds can be found in US7989639B2 (Novartis AG, priority 2006, dated 2011).

Structures can show the parent of a compound that is named as a salt. Bounds are passed on as bounds.

Type in all cases: physicochemical
The nature of series [1]: Thermogravimetric analysis (TGA) of the salts: loss on drying, desolvation and decomposition temperature. Particulars: for Tdecomposition: approximated by onset of first derivative of thermogravimetric curve vs. temperature, salt sample as obtained from the solvent/temperature; for Tdesolvation: value in brackets after LOD. An excerpt: In addition, “loss on drying” (LOD) refers to weight loss determined between ambient and decomposition temperatures. The later is approximated by the onset of the first derivative of the thermogravimetric curve vs. temperature. […] Salt formation, stoichiometry, and the presence or absence of solvents is confirmed by observing the ^1H-NMR chemical shifts of the corresponding salt forming agents and reaction solvents (the tables contain one characteristic chemical shift for salt forming agents or solvents). […] The extent of protonation of the free base is assessed by the change in the chemical shift of the benzylic (Hbz) protons. […] Finally, “-” indicates a measurement not taken.
A stoichiometric amount of acetic acid was subsequently added to the suspension. The mixture was stirred at either 60° C. or ambient temperature (where a clear solution formed, stirring continued at 4° C.). Solids were collected by filtration and analyzed by XRPD, TGA and in some instances ^1H-NMR.

Experiment in series [2]: as above
The conditions noted are these: isothermal hold at 120° C. for 10 minutes.

Series [3] can be described thus: Hygroscopicity / moisture uptake observed on isolation of the salts. The conditions noted are these: observation on isolated solid / during filtration. How it is done: A stoichiometric amount of sodium hydroxide was subsequently added to the suspension. The mixture was stirred at 50° C. Once a clear solution formed, stirring continued at 4° C. Solids were collected by filtration and analyzed by XRPD and TGA.
It is noted that the initially formed yellow powder is a polymorph of the mesylate salt that contains more than the equimolar amount of methane sulfonic acid. […] Upon gentle heating to 40 or 50° C. and within 2 to 4 hours, the yellow powder converts to a white crystalline solid that contains the equimolar amount of the methane sulfonic acid. This salt is non-hygroscopic. It is also advised that addition of the methane sulfonic acid is done at ambient temperature and the temperature increased afterwards. It was observed that addition at higher temperature afforded the immediate precipitation of the salt as a soft and gummy material.

On to `Cc1[nH]c2ccccc2c1CCNCc1ccc(/C=C/C(=O)NO)cc1` [acetate salt form A, N-hydroxy-3-[4-[[[2-(2-methyl-1H-indol-3-yl)ethyl]amino]methyl]phenyl]-2E-2-propenamide], for which the Tdecomposition in series [1] (salt formed in AcOEt at 60 °C) came out at 147.9 °C; in series [1] (salt formed in IPA at 60 °C), 148.7 °C. Further, the Tdesolvation in series [1] was 72.5 °C.

With `Cc1[nH]c2ccccc2c1CCNCc1ccc(/C=C/C(=O)NO)cc1` [acetate salt form SA, N-hydroxy-3-[4-[[[2-(2-methyl-1H-indol-3-yl)ethyl]amino]methyl]phenyl]-2E-2-propenamide], in series [1], the Tdecomposition was found to be 147.9 °C and the Tdesolvation was found to be 107.9 °C.

As for `Cc1[nH]c2ccccc2c1CCNCc1ccc(/C=C/C(=O)NO)cc1` [benzoate salt form A, N-hydroxy-3-[4-[[[2-(2-methyl-1H-indol-3-yl)ethyl]amino]methyl]phenyl]-2E-2-propenamide], in series [1], the Tdecomposition amounted to 160.2 °C.

Consider `Cc1[nH]c2ccccc2c1CCNCc1ccc(/C=C/C(=O)NO)cc1` [benzoate salt form SA, N-hydroxy-3-[4-[[[2-(2-methyl-1H-indol-3-yl)ethyl]amino]methyl]phenyl]-2E-2-propenamide], for which the “LOD % (isothermal)” value in series [2] amounted to 5.2%. Moreover, in series [1], the Tdecomposition entry is “at 110 °C”.

Turning to `Cc1[nH]c2ccccc2c1CCNCc1ccc(/C=C/C(=O)NO)cc1` [benzoate salt form SB, N-hydroxy-3-[4-[[[2-(2-methyl-1H-indol-3-yl)ethyl]amino]methyl]phenyl]-2E-2-propenamide], in series [2], the “LOD % (isothermal)” value was determined as 6.3%. Also, in series [1], the Tdecomposition entry was “dec. at 100 °C”.

Regarding `Cc1[nH]c2ccccc2c1CCNCc1ccc(/C=C/C(=O)NO)cc1` [calcium salt, N-hydroxy-3-[4-[[[2-(2-methyl-1H-indol-3-yl)ethyl]amino]methyl]phenyl]-2E-2-propenamide], the Hygroscopicity result in series [3] is on record as “less hygroscopic than the sodium or potassium salt”.

Take `Cc1[nH]c2ccccc2c1CCNCc1ccc(/C=C/C(=O)NO)cc1` [gentisate salt form A, N-hydroxy-3-[4-[[[2-(2-methyl-1H-indol-3-yl)ethyl]amino]methyl]phenyl]-2E-2-propenamide]: the Tdecomposition in series [1] was 235.5 °C.

With `Cc1[nH]c2ccccc2c1CCNCc1ccc(/C=C/C(=O)NO)cc1` [hemi-fumarate salt form B, N-hydroxy-3-[4-[[[2-(2-methyl-1H-indol-3-yl)ethyl]amino]methyl]phenyl]-2E-2-propenamide], the Tdecomposition in series [1] worked out at 213.2 °C.

For the compound `Cc1[nH]c2ccccc2c1CCNCc1ccc(/C=C/C(=O)NO)cc1` [hemi-fumarate salt form HA, N-hydroxy-3-[4-[[[2-(2-methyl-1H-indol-3-yl)ethyl]amino]methyl]phenyl]-2E-2-propenamide], the Tdecomposition in series [1] was determined as 159.8 °C.

With `Cc1[nH]c2ccccc2c1CCNCc1ccc(/C=C/C(=O)NO)cc1` [hemi-malate salt form SA, N-hydroxy-3-[4-[[[2-(2-methyl-1H-indol-3-yl)ethyl]amino]methyl]phenyl]-2E-2-propenamide], in series [1], the Tdecomposition worked out at 95 °C.

Turning to `Cc1[nH]c2ccccc2c1CCNCc1ccc(/C=C/C(=O)NO)cc1` [hemi-malonate salt form A, N-hydroxy-3-[4-[[[2-(2-methyl-1H-indol-3-yl)ethyl]amino]methyl]phenyl]-2E-2-propenamide], the Tdecomposition in series [1] (salt prepared in EtOH) was found to be 169.5 °C; in series [1] (salt prepared in IPA), 174.1 °C.

Regarding `Cc1[nH]c2ccccc2c1CCNCc1ccc(/C=C/C(=O)NO)cc1` [hemi-succinate salt form SA, N-hydroxy-3-[4-[[[2-(2-methyl-1H-indol-3-yl)ethyl]amino]methyl]phenyl]-2E-2-propenamide], in series [1], the Tdecomposition was 155.8 °C and the Tdesolvation result is listed as “(90.6) (2- ° C”.

Take `Cc1[nH]c2ccccc2c1CCNCc1ccc(/C=C/C(=O)NO)cc1` [hemi-tartarate salt form B, N-hydroxy-3-[4-[[[2-(2-methyl-1H-indol-3-yl)ethyl]amino]methyl]phenyl]-2E-2-propenamide]: the Tdecomposition in series [1] was above 160 °C.

For `Cc1[nH]c2ccccc2c1CCNCc1ccc(/C=C/C(=O)NO)cc1` [hydrochloride salt form A, N-hydroxy-3-[4-[[[2-(2-methyl-1H-indol-3-yl)ethyl]amino]methyl]phenyl]-2E-2-propenamide], the Tdecomposition in series [1] was 232.3 °C.

Consider `Cc1[nH]c2ccccc2c1CCNCc1ccc(/C=C/C(=O)NO)cc1` [maleate salt form HA, N-hydroxy-3-[4-[[[2-(2-methyl-1H-indol-3-yl)ethyl]amino]methyl]phenyl]-2E-2-propenamide], for which, in series [1], the Tdecomposition turned out to be 150 °C.

Take `Cc1[nH]c2ccccc2c1CCNCc1ccc(/C=C/C(=O)NO)cc1` [maleate salt polymorph from 2-propanol (yellow powder)] [N-hydroxy-3-[4-[[[2-(2-methyl-1H-indol-3-yl)ethyl]amino]methyl]phenyl]-2E-2-propenamide]: the Tdecomposition in series [1] was found to be 118.9 °C.

On to `Cc1[nH]c2ccccc2c1CCNCc1ccc(/C=C/C(=O)NO)cc1` [mesylate salt form A, N-hydroxy-3-[4-[[[2-(2-methyl-1H-indol-3-yl)ethyl]amino]methyl]phenyl]-2E-2-propenamide], for which, in series [3] (listed as mesylate salt yellow powder), the Hygroscopicity result was “very highly hygroscopic”. Moreover, the Tdecomposition in series [1] amounted to 170.9 °C.

`Cc1[nH]c2ccccc2c1CCNCc1ccc(/C=C/C(=O)NO)cc1` [mesylate salt form B, N-hydroxy-3-[4-[[[2-(2-methyl-1H-indol-3-yl)ethyl]amino]methyl]phenyl]-2E-2-propenamide]: the Hygroscopicity entry in series [3] (listed as mesylate salt white crystalline solid) is on record as “non-hygroscopic”.

Turning to `Cc1[nH]c2ccccc2c1CCNCc1ccc(/C=C/C(=O)NO)cc1` [mesylate salt forms A + B, N-hydroxy-3-[4-[[[2-(2-methyl-1H-indol-3-yl)ethyl]amino]methyl]phenyl]-2E-2-propenamide], the Tdecomposition in series [1] amounted to 172.8 °C.

For `Cc1[nH]c2ccccc2c1CCNCc1ccc(/C=C/C(=O)NO)cc1` [oxalate salts, N-hydroxy-3-[4-[[[2-(2-methyl-1H-indol-3-yl)ethyl]amino]methyl]phenyl]-2E-2-propenamide], the Hygroscopicity result in series [3] was “appear to absorb water during filtration”.

Take `Cc1[nH]c2ccccc2c1CCNCc1ccc(/C=C/C(=O)NO)cc1` [phosphate salt form HA, N-hydroxy-3-[4-[[[2-(2-methyl-1H-indol-3-yl)ethyl]amino]methyl]phenyl]-2E-2-propenamide]: the Tdecomposition in series [1] worked out at 179.6 °C.

As for `Cc1[nH]c2ccccc2c1CCNCc1ccc(/C=C/C(=O)NO)cc1` [potassium salt, N-hydroxy-3-[4-[[[2-(2-methyl-1H-indol-3-yl)ethyl]amino]methyl]phenyl]-2E-2-propenamide], the Hygroscopicity result in series [3] is recorded as “highly hygroscopic”.

Regarding `Cc1[nH]c2ccccc2c1CCNCc1ccc(/C=C/C(=O)NO)cc1` [sodium salt, N-hydroxy-3-[4-[[[2-(2-methyl-1H-indol-3-yl)ethyl]amino]methyl]phenyl]-2E-2-propenamide], the Hygroscopicity entry in series [3] is given as “highly hygroscopic”.

Take `Cc1[nH]c2ccccc2c1CCNCc1ccc(/C=C/C(=O)NO)cc1` [sulfate salt form A, N-hydroxy-3-[4-[[[2-(2-methyl-1H-indol-3-yl)ethyl]amino]methyl]phenyl]-2E-2-propenamide]: the Hygroscopicity result in series [3] is reported as “hygroscopic”. In addition, in series [1], the Tdecomposition is around 160 °C.

Take `Cc1[nH]c2ccccc2c1CCNCc1ccc(/C=C/C(=O)NO)cc1` [sulfate salt form SA, N-hydroxy-3-[4-[[[2-(2-methyl-1H-indol-3-yl)ethyl]amino]methyl]phenyl]-2E-2-propenamide]: the Tdecomposition in series [1] turned out to be 162 °C.

As to `Cc1[nH]c2ccccc2c1CCNCc1ccc(/C=C/C(=O)NO)cc1` [zinc salt, N-hydroxy-3-[4-[[[2-(2-methyl-1H-indol-3-yl)ethyl]amino]methyl]phenyl]-2E-2-propenamide], the Hygroscopicity entry in series [3] is recorded as “less hygroscopic than the sodium or potassium salt”.
